# Measured values: patent publication US20070249620A1, “Urea Derivative” (priority 2004, published 2007)
row,SMILES,melting point
1,"COc1ccc(C)cc1NC(=O)Nc1ccc(N2CCN(Cc3ccccc3)CC2)cc1 [Example 191, 1-[4-(4-benzyl-piperazin-1-yl)-phenyl]-3-(2-methoxy-5-methyl-phenyl)-urea]",184 to 186 °C
2,"CCC(C)c1ccc(NC(=O)Nc2ccc(N3CCN(C(=O)OC(C)(C)C)CC3)cc2)cc1 (centres unmarked) [Example 25, 4-{4-[3-(4-sec-butyl-phenyl)-ureido]-phenyl}-piperazine-1-carboxylic acid tert-butyl ester]",201 to 202 °C
3,"CC(C)(C)OC(=O)N1CCN(c2ccc(NC(=O)Nc3cc(Cl)ccc3NS(C)(=O)=O)cc2)CC1 [Example 12, 4-{4-[3-(5-chloro-2-methanesulfonylamino-phenyl)-ureido]-phenyl}-piperazine-1-carboxylic acid tert-butyl ester]",127 °C
4,"COc1ccc(C)cc1NC(=O)Nc1ccc2c(c1)C=CN(C(=O)Nc1c(C)cccc1Cl)C2 [Example 202, 6-[3-(2-methoxy-5-methyl-phenyl)-ureido]-3,4-dihydrido-1H-isoquinoline-2-carboxylic acid (2-chloro-6-methyl-phenyl)-amide]",216 to 218 °C
5,"CC(C)(C)OC(=O)N1CCN(c2ccc(NC(=O)Nc3cc(C(F)(F)F)ccc3F)cc2)CC1 [Example 27, 4-{4-[3-(2-fluoro-5-trifluoromethyl-phenyl)-ureido]-phenyl}-piperazine-1-carboxylic acid tert-butyl ester]",241 °C
6,"CC(C)(C)OC(=O)N1CCN(c2ccc(NC(=O)Nc3ccccc3Oc3ccccc3)cc2)CC1 [Example 7, 4-{4-[3-(2-phenoxy-phenyl)-ureido]-phenyl}-piperazine-1-carboxylic acid tert-butyl ester]",186 to 187 °C
7,"COc1ccc(C)cc1NC(=O)Nc1ccc(N2CCN(C(=O)C3CCCCC3C)CC2)cc1 (centres unmarked) [Example 190, 1-(2-methoxy-5-methyl-phenyl)-3-{4-[4-(2-methyl-cyclohexanecarbonyl)-piperazin-1-yl]-phenyl}-urea]",208 to 209 °C
8,"CCOc1ccc(F)cc1NC(=O)Nc1ccc(N2CCN(C(=O)OC(C)(C)C)CC2)cc1 [Example 42, 4-{4-[3-(2-ethoxy-5-fluoro-phenyl)-ureido]-phenyl}-piperazine-1-carboxylic acid tert-butyl ester]",168 to 169 °C
9,"COc1ccc(Cl)cc1NC(=O)Nc1ccc(N2CCN(C(=O)Nc3c(C)cccc3OC)CC2)cc1 [Example 182, 4-{4-[3-(5-chloro-2-methoxy-phenyl)-ureido]-phenyl}-piperazine-1-carboxylic acid (2-methoxy-6-methyl-phenyl)-amide]",165 to 167 °C
10,"COc1ccccc1NC(=O)Nc1ccc(N2CCN(C(=O)OC(C)(C)C)CC2)cc1 [Example 13, 4-{4-[3-(2-methoxy-phenyl)-ureido]-phenyl}-piperazine-1-carboxylic acid tert-butyl ester]",184 °C
11,"COc1ccc(C)cc1NC(=O)Nc1ccc(N2CCN(C(=O)Nc3ccc(Cl)cc3C)CC2)cc1 [Example 74, 4-{4-[3-(2-methoxy-5-methyl-phenyl)-ureido]-phenyl}-piperazine-1-carboxylic acid (4-chloro-2-methyl-phenyl)-amide]",199 to 201 °C
12,"COc1ccc(Cl)cc1NC(=O)Nc1ccc(N2CCN(C(=O)Nc3ccccc3C(F)(F)F)CC2)cc1 [Example 68, 4-{4-[3-(5-chloro-2-methoxy-phenyl)-ureido]-phenyl}-piperazine-1-carboxylic acid (2-trifluoromethyl-phenyl)-amide]",213 to 214 °C
13,"CCCCOc1ccc(NC(=O)Nc2ccc(N3CCN(C(=O)OC(C)(C)C)CC3)cc2)cc1 [Example 26, 4-{4-[3-(4-butoxy-phenyl)-ureido]-phenyl}-piperazine-1-carboxylic acid tert-butyl ester]",185 to 188 °C
14,"CCOc1ccc(NC(=O)Nc2ccc(N3CCN(C(=O)OC(C)(C)C)CC3)cc2)cc1 [Example 23, 4-{4-[3-(4-ethoxy-phenyl)-ureido]-phenyl}-piperazine-1-carboxylic acid tert-butyl ester]",198 to 200 °C
15,"COc1ccc(C)cc1NC(=O)Nc1ccc(N2CCN(C(=O)OC(C)(C)C)CC2)cc1C [Example 194, 4-{4-[3-(2-methoxy-5-methyl-phenyl)-ureido]-3-methyl-phenyl}-piperazine-1-carboxylic acid tert-butyl ester]",169 to 171 °C
16,"Cc1ccccc1NC(=O)Nc1ccc(N2CCN(C(=O)OC(C)(C)C)CC2)cc1 [Example 16, 4-[4-(3-o-tolyl-ureido)-phenyl]-piperazine-1-carboxylic acid tert-butyl ester]",188 to 191 °C
17,"CCCc1ccccc1NC(=O)Nc1ccc(N2CCN(C(=O)OC(C)(C)C)CC2)cc1 [Example 18, 4-{4-[3-(2-propyl-phenyl)-ureido]-phenyl}-piperazine-1-carboxylic acid tert-butyl ester]",177 to 181 °C
18,"CCOc1ccccc1NC(=O)Nc1ccc(N2CCN(C(=O)OC(C)(C)C)CC2)cc1 [Example 4, 4-{4-[3-(2-ethoxy-phenyl)-ureido]-phenyl}-piperazine-1-carboxylic acid tert-butyl ester]",84 °C

row,SMILES,melting point
1,"CCC(C)c1ccccc1NC(=O)Nc1ccc(N2CCN(C(=O)OC(C)(C)C)CC2)cc1 (centres unmarked) [Example 21, 4-{4-[3-(2-sec-butyl-phenyl)-ureido]-phenyl}-piperazine-1-carboxylic acid tert-butyl ester]",177 °C
2,"COc1ccc(C)cc1NC(=O)Nc1ccc(N2CCN(C(=O)C3CC4CCC3C4)CC2)cc1 (centres unmarked) [Example 189, 1-{4-[4-(bicyclo[2.2.1]heptane-2-carbonyl)-piperazin-1-yl]-phenyl}-3-(2-methoxy-5-methyl-phenyl)-urea]",126 to 128 °C
3,"COc1ccc(C)cc1NC(=O)Nc1ccc(N2CCN(C(=O)Oc3ccccc3)CC2)cc1 [Example 47, 4-{4-[3-(2-methoxy-5-methyl-phenyl)-ureido]-phenyl}-piperazine-1-carboxylic acid phenyl ester]",179 °C
4,"COc1ccc(C)cc1NC(=O)Nc1ccc(N2CCN(C(=O)Nc3ccccc3Cl)CC2)cc1 [Example 56, 4-{4-[3-(2-methoxy-5-methyl-phenyl)-ureido]-phenyl}-piperazine-1-carboxylic acid (2-chloro-phenyl)-amide]",> 240 °C (dec.)
5,"COc1ccc(C)cc1NC(=O)Nc1ccc(N2CCN(C(=O)Nc3cccc(Cl)c3C)CC2)cc1 [Example 136, 4-{4-[3-(2-methoxy-5-methyl-phenyl)-ureido]-phenyl}-piperazine-1-carboxylic acid (3-chloro-2-methyl-phenyl)-amide]",228 to 230 °C
6,"CC(C)(C)OC(=O)N1CCN(c2ccc(NC(=O)Nc3ccccc3[N+](=O)[O-])cc2)CC1 [Example 6, 4-{4-[3-(2-nitro-phenyl)-ureido]-phenyl}-piperazine-1-carboxylic acid tert-butyl ester]",207 °C
7,"COc1ccc(C)cc1NC(=O)Nc1ccc(N2CCN(C(=O)Nc3c(F)cccc3F)CC2)cc1 [Example 55, 4-{4-[3-(2-methoxy-5-methyl-phenyl)-ureido]-phenyl}-piperazine-1-carboxylic acid (2,6-difluoro-phenyl)-amide]",224 °C
8,"COc1ccc(Cl)cc1NC(=O)Nc1ccc(N2CCN(C(=O)Nc3ccccc3C)CC2)cc1 [Example 69, 4-{4-[3-(5-chloro-2-methoxy-phenyl)-ureido]-phenyl}-piperazine-1-carboxylic acid o-tolylamide]",230 to 232 °C
9,"CC(C)(C)OC(=O)N1CCN(c2ccc(NC(=O)Nc3ccccc3OC(F)F)cc2)CC1 [Example 9, 4-{4-[3-(2-difluoromethoxy-phenyl)-ureido]-phenyl}-piperazine-1-carboxylic acid tert-butyl ester]",154 to 155 °C
10,"COc1ccc(C)cc1NC(=O)Nc1ccc(N2CCN(C(=O)OC(C)(C)C)CC2)nc1 [Example 38, 4-{5-[3-(2-methoxy-5-methyl-phenyl)-ureido]-pyridin-2-yl}-piperazine-1-carboxylic acid tert-butyl ester]",185 to 186 °C
11,"CC(C)(C)OC(=O)N1CCN(c2ccc(NC(=O)Nc3ccccc3F)cc2)CC1 [Example 14, 4-{4-[3-(2-fluoro-phenyl)-ureido]-phenyl}-piperazine-1-carboxylic acid tert-butyl ester]",164 to 166 °C
12,"COc1ccc(C)cc1NC(=O)Nc1ccc(N2CCN(C(N)=O)CC2)cc1 [Example 51, 4-{4-[3-(2-methoxy-5-methyl-phenyl)-ureido]-phenyl}-piperazine-1-carboxylic acid amide]",136 °C
13,"COc1ccc(C)cc1NC(=O)Nc1ccc(N2CCN(C(=O)C3CCCCC3)CC2)cc1 [Example 48, 1-[4-(4-cyclohexanecarbonyl-piperazin-1-yl)-phenyl]-3-(2-methoxy-5-methyl-phenyl)-urea]",222 °C
14,"COc1ccc(C)cc1NC(=O)Nc1ccc(N2CCC(C(=O)Nc3c(C)cccc3Cl)CC2)cc1 [Example 196, 1-{4-[3-(2-methoxy-5-methyl-phenyl)-ureido]-phenyl}-piperidine-4-carboxylic acid (2-chloro-6-methyl-phenyl)-amide]",> 250 °C (dec.)
15,"CC(C)(C)OC(=O)N1CCN(c2ccc(NC(=O)Nc3cc(Cl)ccc3[N+](=O)[O-])cc2)CC1 [Example 10, 4-{4-[3-(5-chloro-2-nitro-phenyl)-ureido]-phenyl}-piperazine-1-carboxylic acid tert-butyl ester]",205 °C
16,"COc1ccc(C)cc1NC(=O)Nc1ccc(N2CCN(C(=O)Nc3ccccc3)CC2)cc1 [Example 49, 4-{4-[3-(2-methoxy-5-methyl-phenyl)-ureido]-phenyl}-piperazine-1-carboxylic acid phenylamide]",221 °C
17,"COc1ccc(C)cc1NC(=O)Nc1ccc(N2CCN(C(=O)OC(C)(C)C)CC2)c(C)c1 [Example 195, 4-{4-[3-(2-methoxy-5-methyl-phenyl)-ureido]-2-methyl-phenyl}-piperazine-1-carboxylic acid tert-butyl ester]",103 to 105 °C
